Source: US5464819A, “Physiologically active peptide having immunoregulatory activities” (priority 1990, dated 1995)
Ends that are not written are not given here.

Legend:
[1] = tested on: Methylcholanthrene induced tumor (MC tumor); experiment: Effect of peptide injection on tumor multiplication in Methylcholanthrene induced tumor (MC tumor)-bearing mouse; assay type: in vivo; conditions: 28 days after inoculation with MC tumor cells; 30 μg/mouse intramuscularly every week; control 432±10.5
Method: (§1) Methylcholanthrene induced tumor cells excised from an MC induced tumor lump of a BALB/c mouse having, injected thereto, 0.5 mg of 20-Methylcholanthrene (manufactured and sold by Wako Pure Chemical Industries Ltd.), are suspended in RPMI-1640 culture medium, thereby obtaining a cell suspension of 2×10^7 cells/ml. 0.025 ml (5×10^5 MC tumor cells/mouse) of the cell suspension is intramuscularly injected under the skin on the back of a 6-week-old male mouse to inoculate the mouse with MC-tumor cells, thereby obtaining a tumor-bearing mouse.
(§2) Each of Obio-2 and Obio-3 is intramuscularly injected in an amount of 30 μg/mouse under the skin on the back of the mouse every week after the injection of the above MC tumor cell suspension to evaluate the inhibitory effect thereof on the multiplication of the tumor. Five tumor-bearing mice are employed for each test, and an average is taken.

[2] = tested on: Toxoplasma strain RH; experiment: Activity to inhibit multiplication of Toxoplasma (percentage of cells containing Toxoplasma, Toxo-GIF activity, cytotoxicity) in mouse peritoneal macrophages; assay type: cell-based, Toxoplasma gondii
Method: (§3) In the present invention, the activity to inhibit multiplication of Toxoplasma is evaluated by two characteristics, i.e. "percentage of cells containing Toxoplasma" and "Toxoplasma growth inhibitory factor activity (hereinafter referred to as "Toxo-GIF activity")". These characteristics are measured according to the methods described in Nagasawa, H., et.al., Jpn. J. Vet. Sci., vol. 43, pages 307-319, 1981 and Sakurai, H., et.al., Jpn. J. Trop. Med. Hyg., vol. 10, pages 183-195, 1982.
An adult BALB/c female mouse is intraperitoneally injected with 1 ml of a sterilized saline containing 0.2% of glycogen, and, 5 days later, the peritoneal cavity of the mouse is washed with cold Hank's balanced salt solution (hereinafter referred to as "HBSS"), thereby taking up peritoneal exudate cells. These cells are washed by centrifugation at 250×G for 5 min twice, and suspended in Tc199 culture medium containing 10% of heat-inactivated calf serum (hereinafter referred to as "10%-HICS-Tc199 culture medium", see Igaku No Ayumi (Progress in Medicine), 62, No. 6, published on Aug. 5, 1967) in a concentration of 1×10^6 cells/mi. This cell suspension is portionwise poured, 1 ml each, into culture wells (Multidish-tray, FB-16-24-TC, manufactured and sold by Limblo Chemical Co., U.S.A.), which are covered by a circular cover glass having a diameter of 15 mm, and cultured in a 5% CO2 -incubator. In order to remove contaminating erythrocytes and lymphocytes, each of the culture wells is gently rinsed with HBSS three times at intervals of 2 hours, and then cultivated overnight in the CO2 -incubator to thereby form a mouse macrophage monolayer on the cover glass.
Each of the above-obtained monolayers is again rinsed with 10%-HICS-Tc199 culture medium, and inoculated with 1×10^5 tachyzoites of Toxoplasma strain RH per 1×10^6 mouse macrophages or canine monocytes so that the macrophages are infected thereby. Free Toxoplasma organisms having not penetrated into the cells are removed by washing with HBSS one hour after the inoculation.
(§4) A 10%-HICS-Tc199 culture medium containing a peptide sample is applied to the cover glass in an amount of 1 ml per 1×10^6 cells for both of the mouse macrophages and the canine monocytes, followed by cultivation for 48 hours, and then stained with May-Grunwald-Giemsa to thereby count the number of Toxoplasma organisms in the cells. Within a certain visual field on the cover glass, 100 cells are checked to count the number of cells which contain no Toxoplasma, the number of cells which contain one to five Toxoplasm organisms and the number of cells which contain 6 or more Toxoplasma organisms, and the count results are expressed by percentage. Similar checking and counting are performed within four other visual fields on the cover glass. From the data obtained on all of the five visual fields, an average value and a standard deviation are calculated to determine the percentage of cells containing Toxoplasma.
As a peptide sample, use is made of one obtained by dissolving a powdery peptide in 3 ml of 10%-HICS-Tc199 culture medium and then filtering and sterilizing the resultant solution through a membrane filter having a pore size of 0.46 μm. […]
The thus obtained crude Obioactin is fractionated by DEAE-5PW column (manufactured and sold by Tosoh Co., Japan) having an inside diameter of 21.5 mm and a length of 15 cm by NaCl concentration gradient ion exchange chromatography in which a concentration gradient of NaCl from 0M to 1M is made in 0.02M ammonium acetate as a basic solution. Each of the fractions is lyophilized, desalted by gel filtration through Sephadex G-15 (trade name of a gel manufactured and sold by Pharmacia Fine Chemicals Co., Sweden) and lyophilized again.

[3] = tested on: mononuclear cells in spleen; experiment: Number of mononuclear cells in spleen and histopathology of MC tumor-bearing mouse; assay type: in vivo; conditions: for Bleeding colonies at the tumor tissue portions (histopathological findings): MC tumor-bearing mice, large bleeding colonies in uninjected mice; for Spleen mononuclear cell count in tumor-bearing mice relative to normal mice: spleen mononuclear cells, saline 0.10; for Spleen mononuclear cell count in tumor-bearing mice relative to normal mice / Number of mononuclear cells per mouse: MC tumor-bearing mouse; for Number of mononuclear cells per mouse: spleen, 30 μg once a week, normal mouse 13.0 × 10^7, saline 1.3 × 10^7
Method: as §1, §2
On the other hand, the number of mononuclear cells in the spleen of tumor-bearing mice injected with Obio-2 and Obio-3 experience only a slight decrease, and retains as large a number as 65 to 70% of that of normal mice. In the histopathological findings of these spleens, no significant change is observed in the spleen follicles of both the tumor-bearing mouse groups injected with Obio-2 and Obio-3 and the tumor-bearing mouse group injected with none of them. However, in the mouse groups injected with Obio-2 and Obio-3, small mononuclear cells (small lymphocytes) and large monocytes in the spleen red marrow conspicuously gather in the mallow, especially around the vessels, whereas the control mouse group not injected with the peptide has only small lymphocytes in the marrow.

[4] = tested on: Toxoplasma strain RH; experiment: Activity to inhibit multiplication of Toxoplasma in human myocardial cells (Giardi Heart cell); assay type: cell-based, Toxoplasma gondii; conditions: Obio-2 0.05 mg/ml
Method: as §3
(§5) The cells are suspended in MEM-M culture medium containing 10% of heat-inactivated calf serum at a concentration of 1×10^6 cells/mi. This cell suspension is portionwise poured, 1 ml each, into culture wells (multidish-tray, FB-16-24-TC, manufactured and sold by Limblo Chemical Co., U.S.A.), which are covered by a circular cover glass having a diameter of 15 mm, and cultured in a 5% CO2 -incubator overnight to thereby obtain a cell monolayer (a human myocardial cell monolayer and a human cerebral cell monolayer) on the cover glass.
(§6) The obtained cell monolayer is rinsed with MEM-M culture medium, and inoculated with 1×10^5 tachyzoites of Toxoplasma strain RH per 1×10^6 cells with respect to each of the human myocardial cells and the human brain cells. Free Toxoplasma organisms having not penetrated into the cells are removed by washing with HBSS one hour after the inoculation.
(§7) An MEM-M culture medium containing a peptide sample is applied to the cover glass in an amount of 1 ml per 1×10^6 cells, followed by cultivation for 48 hours, and then stained with May-Grunwald-Giemsa to thereby count the number of Toxoplasma organisms in the cells. The percentage of cells containing Toxoplasma organisms is determined in the same manner as described above for mouse macrophages.
(§8) The Toxo-GIF activity, which is another activity useful for evaluating the activity to inhibit multiplication of Toxoplasma, is defined as a proportion of decrease of Toxoplasma (Tp)-containing cells (in percentage) attributed to the addition of a peptide sample, expressed by percentage, and calculated according to the following formula: Toxo-GIF Activity (%)= [formula]
(§9) The effect of the No. 5 peptide (Obio-2) is evaluated.

[5] = tested on: Toxoplasma strain RH; experiment: Activity to inhibit multiplication of Toxoplasma in canine monocytes; assay type: cell-based, Toxoplasma gondii; conditions: Obio-2 0.05 mg/ml, canine monocyte cell
Method: as §3
On the other hand, in the preparation of canine monocytes, 5 ml of blood is collected from cervical vein as a peripheral blood, and 0.05% of heparin is added. This blood is subjected to fractionation according to the Conray 400-Ficoll method (see Tsuji, H., Men-eki Jikken Sosaho (Procedure for Immunological Tests), 4th ed., Immunocells I-4, pages 443-446, published by Maeda Printing Co., Ltd., in 1979) to thereby obtain a mononuclear cell fraction. The obtained mononuclear cell fraction is subjected to centrifugation (800×G, 5 min., 4° C.) with HBSS and then with 10%-HICS-Tc199 culture medium, and suspended in 10%-HICS-Tc199 culture medium in a concentration of about 1×10^6 cells/mi. The resultant cell suspension is portionwise poured, 1 ml each, into the above-mentioned culture wells, which are covered by a circular cover glass having a diameter of 15 mm, and cultured in a 5% CO2 -incubator. The culturing is effected for 12 hours, and each of the culture wells is gently rinsed with HBSS three times, followed by cultivation overnight in the CO2 -incubator, to thereby form a canine monocyte monolayer on the cover glass.
Each of the above-obtained monolayers is again rinsed with 10%-HICS-Tc199 culture medium, and inoculated with 1×10^5 tachyzoites of Toxoplasma strain RH per 1×10^6 mouse macrophages or canine monocytes so that the macrophages are infected thereby. […]
A 10%-HICS-Tc199 culture medium containing a peptide sample is applied to the cover glass in an amount of 1 ml per 1×10^6 cells for both of the mouse macrophages and the canine monocytes, followed by cultivation for 48 hours, and then stained with May-Grunwald-Giemsa to thereby count the number of Toxoplasma organisms in the cells. […] From the data obtained on all of the five visual fields, an average value and a standard deviation are calculated to determine the percentage of cells containing Toxoplasma.
The Toxo-GIF activity, which is another activity useful for evaluating the activity to inhibit multiplication of Toxoplasma, is defined as a proportion of decrease of Toxoplasma (Tp)-containing cells (in percentage) attributed to the addition of a peptide sample, expressed by percentage, and calculated according to the following formula: Toxo-GIF Activity (%)= [formula] […]
as §9

[6] = tested on: Toxoplasma; experiment: Toxo-GIF activity of synthetic peptides used singly and in combination (host cells not stated); assay type: cell-based, Toxoplasma gondii; conditions: total mg/ml: Obio-1 0.49, Obio-2 0.50, Obio-3 0.45, Obio-1+Obio-2 0.49, Obio-1+Obio-3 0.46, Obio-2+Obio-3 0.47
Method: as §3, §4, §8

[7] = tested on: Toxoplasma strain RH; experiment: Activity to inhibit multiplication of Toxoplasma in human cerebral cells (Flow 3000 cell); assay type: cell-based, Toxoplasma gondii; conditions: Obio-2 0.05 mg/ml
Method: as §3, §5, §6, §7, §8, §9

[8] = Obio-2 0.05 mg/ml, mouse macrophage
[9] = synthetic peptide 0.7 mM, mouse peritoneal macrophages

With AEEPVV [peptide No. 5] as the substance, how does the Average tumor area [1] read?
The Average tumor area was 208±40.1 mm^2.

And the “Concentration at which Toxo-GIF activity becomes appreciable / sufficient activity is detected” value [2]?
Its value is 0.25 mg/mL.

And the “Percentage of cells containing Toxoplasma (Tp): 0 Tp” value (“Percentage … 0 Tp” for short) [2, 8]?
Its value is 88.4 ± 7.6%.

What about the “Percentage of cells containing Toxoplasma (Tp): 1-5 Tp” value (“Percentage … 1-5 Tp” below) [2, 8] of the same substance?
Its value is 7.0 ± 4.5%.

And the “Percentage of cells containing Toxoplasma (Tp): ≥6 Tp/cell” value (“Percentage … ≥6 Tp/cell” for short) [2, 8]?
The value was 4.6 ± 4.2%.

And the Toxo-GIF [2, 8]?
The Toxo-GIF was 50.4%.

What about the “Percentage … 0 Tp” value [2, 9] of the same substance?
The value was 64.4 ± 9.3%.

What about the “Percentage … 1-5 Tp” value [2, 9] of the same substance?
Its value is 32.8 ± 8.8%.

And the “Percentage … ≥6 Tp/cell” value [2, 9]?
Its value is 2.8 ± 1.1%.

What about the Toxo-GIF [2, 9] of the same substance?
Its Toxo-GIF is 61.6%.

And the “Bleeding colonies at the tumor tissue portions (histopathological findings)” value [3]?
Its value is “no apparent bleeding colonies”.

What about the “Spleen mononuclear cell count in tumor-bearing mice relative to normal mice” value [3] of the same substance?
Its value is 0.64.

What about the “Number of mononuclear cells per mouse” value [3] of the same substance?
The value was 8.3 × 10^7.

What about the “Percentage … 0 Tp” value [4] of the same substance?
The value was 80.7 ± 6.1%.

And the “Percentage … 1-5 Tp” value [4]?
Its value is 10.6 ± 3.4%.

And the “Percentage … ≥6 Tp/cell” value [4]?
The value was 8.7 ± 2.1%.

And the Toxo-GIF [4]?
The Toxo-GIF was 57.7%.

And the “Percentage … 0 Tp” value [5]?
Its value is 80.5 ± 6.4%.

What about the “Percentage … 1-5 Tp” value [5] of the same substance?
The value was 12.8 ± 5.4%.

What about the “Percentage … ≥6 Tp/cell” value [5] of the same substance?
Its value is 6.7 ± 3.3%.

What about the Toxo-GIF [5] of the same substance?
Its Toxo-GIF is 67.4%.

And the “Percentage … 0 Tp” value [6]?
The value was 69.6 ± 11.5%.

What about the “Percentage … 1-5 Tp” value [6] of the same substance?
Its value is 24.0 ± 9.1%.

And the “Percentage … ≥6 Tp/cell” value [6]?
Its value is 6.4 ± 2.7%.

What about the Toxo-GIF [6] of the same substance?
The Toxo-GIF was 63.1%.

And the “Percentage … 0 Tp” value [7]?
The value was 75.4 ± 7.4%.

And the “Percentage … 1-5 Tp” value [7]?
The value was 12.6 ± 6.8%.

And the “Percentage … ≥6 Tp/cell” value [7]?
The value was 2.1 ± 1.9%.

And the Toxo-GIF [7]?
Its Toxo-GIF is 78.2%.

Which results are given for GAEEPVV [peptide No. 6]?
Average tumor area [1]: 219±40.1 mm^2; Percentage of cells containing Toxoplasma (Tp): 0 Tp [2, 9]: 55.2 ± 6.2%; Percentage of cells containing Toxoplasma (Tp): 1-5 Tp [2, 9]: 36.2 ± 8.6%; Percentage of cells containing Toxoplasma (Tp): ≥6 Tp/cell [2, 9]: 8.6 ± 4.4%; Toxo-GIF [2, 9]: 51.7%; Bleeding colonies at the tumor tissue portions (histopathological findings) [3]: no apparent bleeding colonies; Spleen mononuclear cell count in tumor-bearing mice relative to normal mice [3]: 0.72; Number of mononuclear cells per mouse [3]: 9.1 × 10^7; Percentage of cells containing Toxoplasma (Tp): 0 Tp [6]: 59.7 ± 15.8%; Percentage of cells containing Toxoplasma (Tp): 1-5 Tp [6]: 29.5 ± 11.0%; Percentage of cells containing Toxoplasma (Tp): ≥6 Tp/cell [6]: 10.8 ± 7.1%; Toxo-GIF [6]: 51.1%
